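Each compound was tested at five concentrations against cells in 96-well plates for 48 hours. GI50 marks 50% less growth.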 Active and inactive are the calls of the source. No stated cut-off is given here; in the data, active = GI50 up to about 1.1 µM and inactive = higher.
Assays:
Experiment in all cases: NCI tumour cell line growth inhibition, 48 h
[1] = tested on: NCI-H460
[2] = tested on: A549
[3] = tested on: ACHN
[4] = tested on: OVCAR-8
[5] = tested on: BT-549
[6] = tested on: MOLT-4
[7] = tested on: MCF7
[8] = tested on: SNB-75
[9] = tested on: A498
[10] = tested on: U-251
[11] = tested on: NCI-H23
[12] = tested on: RXF 393
[13] = tested on: HT-29
[14] = tested on: DU-145
[15] = tested on: UO-31
[16] = tested on: UACC-257
[17] = tested on: NCI-H226
[18] = tested on: HL-60
[19] = tested on: 786-0
[20] = tested on: TK-10
[21] = tested on: SN12C
[22] = tested on: UACC-62
[23] = tested on: SF-295
[24] = tested on: MDA-MB-435
[25] = tested on: SR
[26] = tested on: IGROV-1
[27] = tested on: HOP-92
[28] = tested on: Malme-3M
[29] = tested on: HCT-15
[30] = tested on: RPMI-8226
[31] = tested on: Hs-578T
[32] = tested on: K562
[33] = tested on: EKVX
[34] = tested on: CAKI-1
[35] = tested on: SNB-19
[36] = tested on: OVCAR-5
[37] = tested on: SK-MEL-2
[38] = tested on: KM12
[39] = tested on: MDA-MB-231
[40] = tested on: SF-539
[41] = tested on: HOP-62
[42] = tested on: OVCAR-4
[43] = tested on: OVCAR-3
[44] = tested on: NCI/ADR-RES
[45] = tested on: HCC 2998
[46] = tested on: PC-3
[47] = tested on: SK-OV-3
[48] = tested on: SK-MEL-5
[49] = tested on: SW-620
[50] = tested on: COLO 205
[51] = tested on: HCT-116
[52] = tested on: CCRF-CEM
[53] = tested on: SF-268
[54] = tested on: SK-MEL-28
[55] = tested on: M14
[56] = tested on: NCI-H522
[57] = tested on: T47D
[58] = tested on: LOX IMVI
[59] = tested on: MDA-N
[60] = tested on: LXFL 529
[61] = tested on: M19-MEL
[62] = tested on: KM-20L2
[63] = tested on: DMS-273
[64] = tested on: SNB-78
[65] = tested on: DMS-114
[66] = tested on: HOP-18

Measured: GI50

O=C1C(=O)c2c(oc(=O)c3ccccc23)-c2ccccc21
17.6 µM: [29]
inactive: [1] > 25 µM | [2] > 25 µM | [3] > 25 µM | [4] 16.4 µM | [5] 11.7 µM | [6] > 25 µM | [7] 10.9 µM | [8] 16.6 µM | [9] > 25 µM | [10] > 25 µM | [11] 18 µM | [12] > 25 µM | [13] 17.5 µM | [14] > 25 µM | [15] > 25 µM | [16] > 25 µM | [17] > 25 µM | [18] 8.11 µM | [19] > 25 µM | [20] > 25 µM | [21] 14.5 µM | [22] > 25 µM | [23] > 25 µM | [24] 6.75 µM | [25] > 25 µM | [26] > 25 µM | [27] 15.3 µM | [28] 8.93 µM | [30] 19.3 µM | [31] > 25 µM | [32] > 25 µM | [33] > 25 µM | [34] > 25 µM | [35] > 25 µM | [36] > 25 µM | [37] > 25 µM | [38] > 25 µM | [39] > 25 µM | [40] > 25 µM | [41] > 25 µM | [42] 6.5 µM | [43] 7.05 µM | [44] 22.9 µM | [45] 13.9 µM | [46] > 25 µM | [47] > 25 µM | [48] 12.6 µM | [49] 22.2 µM | [50] > 25 µM | [51] 11 µM | [52] > 25 µM | [53] > 25 µM | [54] > 25 µM | [55] > 25 µM | [56] 21.2 µM | [57] > 25 µM | [58] 16.9 µM | [59] 24.4 µM

CCCc1[nH]c(SCCCCCCCCSc2nc(-c3ccc(F)cc3)c(CCC)[nH]2)nc1-c1ccc(F)cc1
inactive: [1] 35.2 µM | [2] 11.3 µM | [3] 54.1 µM | [4] 9.84 µM | [60] 7.46 µM | [6] 4.65 µM | [8] 2.11 µM | [10] 18.7 µM | [11] 4.49 µM | [12] 27.4 µM | [13] 62.7 µM | [15] 6.11 µM | [16] 12.2 µM | [61] 29.9 µM | [62] 16.1 µM | [18] 6.5 µM | [20] 17.7 µM | [63] 44.3 µM | [21] 9.42 µM | [22] 5.58 µM | [25] 7.08 µM | [64] 26.2 µM | [26] 37.7 µM | [27] 3.8 µM | [65] 3.94 µM | [30] 1.98 µM | [32] 3.83 µM | [33] 4.89 µM | [35] 21.3 µM | [36] 33 µM | [37] 24.2 µM | [38] 35.2 µM | [66] 6.41 µM | [40] 6.21 µM | [41] 15.2 µM | [42] 10.3 µM | [43] 1.94 µM | [45] > 100 µM | [48] 4.68 µM | [49] > 100 µM | [50] 77.4 µM | [51] 5.42 µM | [52] 6.59 µM | [53] 3.33 µM | [54] 26.7 µM | [55] 17.3 µM | [58] 10.3 µM
7 µM: [29]

CCCC(=O)OC1C(C2COC(C)(C)O2)OC2OC(C)(C)OC21 (stereo unspecified)
inactive: [1] > 100 µM | [3] > 100 µM | [4] > 100 µM | [6] > 100 µM | [9] > 100 µM | [10] > 100 µM | [11] > 100 µM | [12] > 100 µM | [13] > 100 µM | [15] > 100 µM | [16] > 100 µM | [61] > 100 µM | [62] > 100 µM | [18] > 100 µM | [20] > 100 µM | [63] > 100 µM | [22] > 100 µM | [23] > 100 µM | [25] > 100 µM | [64] > 100 µM | [26] > 100 µM | [27] > 100 µM | [65] > 100 µM | [32] > 100 µM | [33] > 100 µM | [35] > 100 µM | [36] > 100 µM | [38] > 100 µM | [41] > 100 µM | [47] > 100 µM | [51] > 100 µM | [52] > 100 µM | [54] > 100 µM | [55] > 100 µM | [56] > 100 µM

CC(C)/C(=N\[N+](C)(C)C)c1ccccc1
> 100 µM: [29]
inactive: [1] > 100 µM | [2] > 100 µM | [3] > 100 µM | [4] > 100 µM | [5] > 100 µM | [6] > 100 µM | [7] > 100 µM | [8] > 100 µM | [9] > 100 µM | [10] > 100 µM | [11] > 100 µM | [12] > 100 µM | [13] > 100 µM | [14] > 100 µM | [15] > 100 µM | [16] > 100 µM | [17] > 100 µM | [18] > 100 µM | [19] > 100 µM | [20] > 100 µM | [21] > 100 µM | [22] > 100 µM | [23] > 100 µM | [24] > 100 µM | [25] > 100 µM | [26] > 100 µM | [27] 69.3 µM | [28] > 100 µM | [30] > 100 µM | [31] > 100 µM | [32] > 100 µM | [33] > 100 µM | [34] > 100 µM | [35] > 100 µM | [36] > 100 µM | [37] > 100 µM | [38] > 100 µM | [39] > 100 µM | [40] > 100 µM | [41] > 100 µM | [42] > 100 µM | [43] > 100 µM | [44] > 100 µM | [45] > 100 µM | [46] > 100 µM | [47] > 100 µM | [48] > 100 µM | [49] > 100 µM | [50] > 100 µM | [51] > 100 µM | [52] > 100 µM | [53] > 100 µM | [54] > 100 µM | [55] > 100 µM | [56] > 100 µM | [57] > 100 µM | [58] > 100 µM | [59] > 100 µM

From ChEMBL document CHEMBL1201862, “PubChem BioAssay data set” (2004)
